In patent US9822115B2, “Nitrogen containing compounds and their use as antibacterial agents” (WOCKHARDT LIMITED, priority 2014, dated 2017):
Values after ≈ are worked out from the molar mass of the structure shown.

Experiments:
[1] = target: T1, Class D beta-lactamase, A. baumannii NCTC 13301 (OXA 23) (Acinetobacter baumannii, UniProt Q9L4P2); test: Beta-lactamase enzyme inhibition (nitrocefin, crude enzyme); type: biochemical; conditions: Class D A. baumannii NCTC 13301 (OXA 23); read-out: Beta-lactamase enzyme inhibition IC50
T1 construct: preincubated mixture of crude enzyme and the agents; endogenous in cells; host or cells: A. baumannii NCTC 13301
T1 sequence (Q9L4P2 18-273): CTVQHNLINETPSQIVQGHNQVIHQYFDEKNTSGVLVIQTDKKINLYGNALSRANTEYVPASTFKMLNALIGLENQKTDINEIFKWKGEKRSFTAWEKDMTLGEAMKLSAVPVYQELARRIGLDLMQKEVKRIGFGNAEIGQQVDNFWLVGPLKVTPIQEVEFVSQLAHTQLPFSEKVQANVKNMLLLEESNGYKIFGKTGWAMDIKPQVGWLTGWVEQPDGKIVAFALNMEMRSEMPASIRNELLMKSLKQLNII
Experimental: (§1) Determination of enzyme inhibition activity: Concentration of the inhibitor required to inhibit 50% of enzymatic activity was measured by adding a chromogenic substrate, Nitrocefin (100 uM, 5 min) to the preincubated mixture of crude enzyme and the agents (37° C., 10 min). Absorbance was measured at 485 nm by UV-spectrophotometer. The IC50 was calculated by plotting absorbance against concentration through Sigmoidal dose response curve using Graph Pad software.
(§2) The enzyme inhibition was expressed as IC50.

[2] = target: T2, Class A beta-lactamase, K. pneumoniae ATCC 700603 (SHV 18) (Klebsiella pneumoniae, UniProt P0AD64, E235K/G234A/R39S); test: biochemical
T2 construct: preincubated mixture of crude enzyme and the agents; endogenous in cells; host or cells: K. pneumoniae ATCC 700603
T2 sequence (P0AD64 22-286 R39S/G234A/E235K): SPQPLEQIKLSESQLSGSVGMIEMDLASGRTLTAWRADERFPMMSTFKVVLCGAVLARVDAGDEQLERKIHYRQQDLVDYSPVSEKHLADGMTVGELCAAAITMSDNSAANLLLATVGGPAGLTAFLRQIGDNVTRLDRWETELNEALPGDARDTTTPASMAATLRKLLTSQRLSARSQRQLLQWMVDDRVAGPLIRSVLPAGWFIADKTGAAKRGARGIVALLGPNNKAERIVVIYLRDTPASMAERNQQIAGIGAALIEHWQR
Experimental: as §1, §2

[3] = test system: K. pneomoniae S48 (NDM, SHV, TEM); test: Antibacterial activity, MIC by agar dilution (CLSI); type: cell-based, K. pneumoniae; conditions: Klebsiella pneumoniae; Table 2; K. pneomoniae S48 (NDM, SHV, TEM); read-out: MIC
Experimental: (§3) The biological activity of representative compounds according to the invention against various bacterial strains was investigated. In a typical study, overnight grown bacterial cultures were diluted appropriately and inoculated on the agar media containing doubling dilutions of the test compounds. Observations for growth or no growth was performed after 16-20 hours of incubation at 35±2° C. in the ambient air. The overall procedure was performed as per Clinical and Laboratory Standards Institute (CLSI) recommendations, (Clinical and Laboratory Standards Institute (CLSI), Performance Standards for Antimicrobial Susceptibility Testing, 20th Informational Supplement, M07-A9, Volume 32, No. 2, 2012). Molten Mueller Hinton Agar (BD, USA) containing serial dilutions of each antibacterial agent were poured on to the plates and allowed to solidify. Appropriate suspensions from the freshly grown cultures were prepared in normal saline so that about 10^4 CFU/spot of the organism was delivered on to the drug containing agar plates using automated multipoint inoculator (Mast, UK). The plates were incubated in Biochemical oxygen demand (BOD) incubator at 37° C. for 18 hours and then examined for growth.
(§4) The strains selected for study included E. coli NCTC 13353 producing CTX-M15 and OXA-1 beta-lactamase enzymes; K. pneumoniae H521 producing KPC, SHV, TEM beta-lactamase enzymes; and K. pneumoniae S48 producing NDM, SHV, TEM beta-lactamase enzymes. The activities are expressed as Minimum Inhibitory Concentrations (MICs) (mcg/ml).

[4] = test system: T3, Class C beta-lactamase, E. coli M50 (CMY/DHA); type: biochemical; conditions: read-out: Beta-lactamase enzyme inhibition IC50
T3 construct: no borders, tags or purification printed
Experimental: as §1, §2

[5] = test system: K. pneumoniae H521 (KPC, SHV, TEM); test: Antibacterial activity, MIC by agar dilution (CLSI); type: cell-based; conditions: Klebsiella pneumoniae, Table 2; K. pneumoniae H521 (KPC, SHV, TEM); read-out: MIC
Experimental: as §3, §4

[6] = test system: E. coli NCTC 13353 (CTX-M15, OXA-1); test: as above; type: cell-based; conditions: Escherichia coli, NCTC13353, Table 2; E. Coli NCTC 13353 (CTX-M15, OXA-1); read-out: MIC
Experimental: as §3
as §4, with “Table 2 details the antibacterial activity of representative compounds according to invention, against various Multi Drug Resistant (MDR) Gram-negative bacterial strains. The strains” for “The strains”

| SMILES | IC50 [1] [nM] | IC50 [2] [nM] | MIC [3] [µg/mL] | IC50 [4] [nM] | MIC [5] [µg/mL] | MIC [6] [µg/mL] |
| --- | --- | --- | --- | --- | --- | --- |
| C[C@H](N)COc1ccccc1CC(=O)NNC(=O)[C@@H]1CC[C@@H]2CN1C(=O)N2OS(=O)(=O)O [Example 40, (2S,5R)-sulfuric acid mono-[2-(N′-{2-[2-((S)-2-amino-propoxy)-phenyl]-acetyl}-hydrazinocarbonyl)-7-oxo-1,6-diaza-bicyclo[3.2.1]oct-6-yl]ester] | 1570 | 110 | 2 (≈ 4.24 µM) | 99 | 2 (≈ 4.24 µM) | 2 (≈ 4.24 µM) |
| C[C@H](N)COc1cccc(CC(=O)NNC(=O)[C@@H]2CC[C@@H]3CN2C(=O)N3OS(=O)(=O)O)c1 [Example 41, (2S,5R)-sulfuric acid mono-[2-(N′-{2-[3-((S)-2-amino-propoxy)-phenyl]-acetyl}-hydrazinocarbonyl)-7-oxo-1,6-diaza-bicyclo[3.2.1]oct-6-yl]ester] | 990 | 38 | 0.5 (≈ 1.06 µM) | 53 | 1 (≈ 2.12 µM) | 0.5 (≈ 1.06 µM) |
| C[C@@H](N)COc1cccc(CC(=O)NNC(=O)[C@@H]2CC[C@@H]3CN2C(=O)N3OS(=O)(=O)O)c1 [Example 42, (2S,5R)-sulfuric acid mono-[2-(N′-{2-[3-((R)-2-amino-propoxy)-phenyl]-acetyl}-hydrazinocarbonyl)-7-oxo-1,6-diaza-bicyclo[3.2.1]oct-6-yl]ester] | 1230 | 36 | 0.5 (≈ 1.06 µM) | 32 | 1 (≈ 2.12 µM) | 1 (≈ 2.12 µM) |
| C[C@H](N)COc1ccc(CC(=O)NNC(=O)[C@@H]2CC[C@@H]3CN2C(=O)N3OS(=O)(=O)O)cc1 [Example 43, (2S,5R)-sulfuric acid mono-[2-(N′-{2-[4-((S)-2-amino-propoxy)-phenyl]-acetyl}-hydrazinocarbonyl)-7-oxo-1,6-diaza-bicyclo[3.2.1]oct-6-yl]ester] | 522 | 386 | 0.5 (≈ 1.06 µM) | 37 | 2 (≈ 4.24 µM) | 0.5 (≈ 1.06 µM) |
| C[C@H](N)COc1ccc(CC(=O)NNC(=O)[C@@H]2CC[C@@H]3CN2C(=O)N3OS(=O)(=O)O)c(F)c1 [Example 44, (2S,5R)-sulfuric acid mono-[2-(N′-{2-[2-fluoro-4-((S)-2-amino-propoxy)-phenyl]-acetyl}-hydrazinocarbonyl)-7-oxo-1,6-diaza-bicyclo[3.2.1]oct-6-yl]ester] | 561 | 58 | 1 (≈ 2.04 µM) | 31 | 2 (≈ 4.09 µM) | 1 (≈ 2.04 µM) |
| CC(C)[C@@H](N)COc1ccc(CC(=O)NNC(=O)[C@@H]2CC[C@@H]3CN2C(=O)N3OS(=O)(=O)O)c(F)c1 [Example 46, (2S,5R)-sulfuric acid mono-[2-(N′-{2-[2-fluoro-4-((R)-2-amino-3-methyl-butoxy)-phenyl]-acetyl}-hydrazinocarbonyl)-7-oxo-1,6-diaza-bicyclo[3.2.1]oct-6-yl]ester] | 4100 | 79 | 4 (≈ 7.73 µM) | 266 | 4 (≈ 7.73 µM) | 2 (≈ 3.86 µM) |
| O=C(Cc1ccc(O[C@H]2CCNC2)cc1F)NNC(=O)[C@@H]1CC[C@@H]2CN1C(=O)N2OS(=O)(=O)O [Example 47, (2S,5R)-sulfuric acid mono-[2-(N′-{2-[2-fluoro-4-((S)-pyrrolidin-3-oxy)-phenyl]-acetyl}-hydrazinocarbonyl)-7-oxo-1,6-diaza-bicyclo[3.2.1]oct-6-yl]ester] | 842 | 15.1 | 0.5 (≈ 0.997 µM) | 77 | 2 (≈ 3.99 µM) | 1 (≈ 1.99 µM) |
| C[C@@H](N)COc1ccc(CC(=O)NNC(=O)[C@@H]2CC[C@@H]3CN2C(=O)N3OS(=O)(=O)O)cc1 [Example 49, (2S,5R)-sulfuric acid mono-[2-(N′-{2-[4-((R)-2-amino-propoxy)-phenyl]-acetyl}-hydrazinocarbonyl)-7-oxo-1,6-diaza-bicyclo[3.2.1]oct-6-yl]ester] | 542 | 112 | 0.5 (≈ 1.06 µM) | 47 | 1 (≈ 2.12 µM) | 0.5 (≈ 1.06 µM) |
| CC(C)[C@H](N)COc1ccccc1CC(=O)NNC(=O)[C@@H]1CC[C@@H]2CN1C(=O)N2OS(=O)(=O)O [Example 50, (2S,5R)-sulfuric acid mono-[2-(N′-{2-[2-((S)-2-amino-3-methyl-butoxy)-phenyl]-acetyl}-hydrazinocarbonyl)-7-oxo-1,6-diaza-bicyclo[3.2.1]oct-6-yl]ester] | 1170 | 79 | 16 (≈ 32 µM) | 77 | > 32 | 16 (≈ 32 µM) |
| CC(C)[C@H](N)COc1ccc(CC(=O)NNC(=O)[C@@H]2CC[C@@H]3CN2C(=O)N3OS(=O)(=O)O)cc1 [Example 54, (2S,5R)-sulfuric acid mono-[2-(N′-{2-[4-((S)-2-amino-3-methyl-butoxy)-phenyl]-acetyl}-hydrazinocarbonyl)-7-oxo-1,6-diaza-bicyclo[3.2.1]oct-6-yl]ester] | 625 | 37 | 1 (≈ 2 µM) | 40 | 8 (≈ 16 µM) | 1 (≈ 2 µM) |
| O=C(Cc1ccccc1OC[C@@H]1CCCN1)NNC(=O)[C@@H]1CC[C@@H]2CN1C(=O)N2OS(=O)(=O)O [Example 56, (2S,5R)-sulfuric acid mono-[2-(N′-{2-[2-((S)-pyrrolidin-2-ylmethoxy)-phenyl]-acetyl}-hydrazinocarbonyl)-7-oxo-1,6-diaza-bicyclo[3.2.1]oct-6-yl]ester] | 1760 | 142 | 16 (≈ 32.2 µM) | 50 | 16 (≈ 32.2 µM) | 8 (≈ 16.1 µM) |
| O=C(Cc1ccccc1OC[C@H]1CCCN1)NNC(=O)[C@@H]1CC[C@@H]2CN1C(=O)N2OS(=O)(=O)O [Example 57, (2S,5R)-sulfuric acid mono-[2-(N′-{2-[2-((R)-pyrrolidin-2-ylmethoxy)-phenyl]-acetyl}-hydrazinocarbonyl)-7-oxo-1,6-diaza-bicyclo[3.2.1]oct-6-yl]ester] | 3290 | 125 | 2 (≈ 4.02 µM) | 105 | 4 (≈ 8.04 µM) | 2 (≈ 4.02 µM) |
| O=C(Cc1cccc(OC[C@@H]2CCCN2)c1)NNC(=O)[C@@H]1CC[C@@H]2CN1C(=O)N2OS(=O)(=O)O [Example 58, (2S,5R)-sulfuric acid mono-[2-(N′-{2-[3-((S)-pyrrolidin-2-ylmethoxy)-phenyl]-acetyl}-hydrazinocarbonyl)-7-oxo-1,6-diaza-bicyclo[3.2.1]oct-6-yl]ester] | 1470 | 53 | 0.5 (≈ 1 µM) | 37 | 2 (≈ 4.02 µM) | 1 (≈ 2.01 µM) |
| O=C(Cc1cccc(OC[C@@H]2CCNC2)c1)NNC(=O)[C@@H]1CC[C@@H]2CN1C(=O)N2OS(=O)(=O)O [Example 60, (2S,5R)-sulfuric acid mono-[2-(N′-{2-[3-((R)-pyrrolidin-3-ylmethoxy)-phenyl]-acetyl}-hydrazinocarbonyl)-7-oxo-1,6-diaza-bicyclo[3.2.1]oct-6-yl]ester] | 1280 | 45 | 1 (≈ 2.01 µM) | 41 | 2 (≈ 4.02 µM) | 1 (≈ 2.01 µM) |
| O=C(Cc1ccc(OC[C@@H]2CCCN2)cc1)NNC(=O)[C@@H]1CC[C@@H]2CN1C(=O)N2OS(=O)(=O)O [Example 61, (2S,5R)-sulfuric acid mono-[2-(N′-{2-[4-((S)-pyrrolidin-2-ylmethoxy)-phenyl]-acetyl}-hydrazinocarbonyl)-7-oxo-1,6-diaza-bicyclo[3.2.1]oct-6-yl]ester] | 690 | 71 | 1 (≈ 2.01 µM) | 29 | 2 (≈ 4.02 µM) | 1 (≈ 2.01 µM) |
